{"source": "paper PMC6934184", "about": "“Selective DNA-PKcs inhibition extends the therapeutic index of localized radiotherapy and chemotherapy” (The Journal of Clinical Investigation, 2019)", "biological_target": "T1, PLK2 (Homo sapiens, UniProt Q9NYY3)", "T1 construct": "purchased Thermo Fisher Scientific (Life Technologies) SelectScreen", "T1 sequence (Q9NYY3 whole entry)": "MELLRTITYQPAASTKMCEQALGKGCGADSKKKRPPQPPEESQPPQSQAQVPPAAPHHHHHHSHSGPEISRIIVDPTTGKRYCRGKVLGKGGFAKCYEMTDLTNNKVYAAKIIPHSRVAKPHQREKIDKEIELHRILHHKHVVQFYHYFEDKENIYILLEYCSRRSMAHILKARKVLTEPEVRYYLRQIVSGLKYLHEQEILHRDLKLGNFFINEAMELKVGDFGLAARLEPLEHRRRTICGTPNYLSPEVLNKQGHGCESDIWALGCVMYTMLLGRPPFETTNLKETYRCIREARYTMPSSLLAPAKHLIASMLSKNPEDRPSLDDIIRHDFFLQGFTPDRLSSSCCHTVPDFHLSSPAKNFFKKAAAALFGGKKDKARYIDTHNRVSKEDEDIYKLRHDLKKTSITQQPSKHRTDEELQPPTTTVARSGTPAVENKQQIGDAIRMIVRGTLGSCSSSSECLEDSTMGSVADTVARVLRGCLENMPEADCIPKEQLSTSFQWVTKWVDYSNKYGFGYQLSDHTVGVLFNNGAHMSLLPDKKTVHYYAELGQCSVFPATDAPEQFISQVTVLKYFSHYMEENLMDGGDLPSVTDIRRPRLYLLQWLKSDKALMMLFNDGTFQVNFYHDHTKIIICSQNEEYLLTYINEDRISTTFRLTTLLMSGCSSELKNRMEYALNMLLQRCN", "test": "SelectScreen Z'LYTE", "type": "biochemical", "method_in_brief": "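Percent values come from Thermo SelectScreen profiling of NU5455, combining activity and binding assays. CSF1R was run in Z'LYTE format at Km app ATP, and CAMK1 in Adapta format with ATP listed at 10.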"}
{"smiles": "CN(C(=O)CN1CCOCC1)c1ccc2sc3c(-c4cccc5c(=O)cc(N6CC7CCC(C6)O7)oc45)cccc3c2c1", "note": "[NU5455]", "values": [{"measurement": "inhibition at 1 µM", "value": 14.1, "unit": "%"}]}
